Reference: patent US7807369B2, “Methods and means for the treatment of HPV induced intraepithelial neoplasia” (Leiden University Medical Center, priority 2005, dated 2010)

Experiments:
high-grade VIN = experiment: Clinical response of high-grade VIN lesions to 5% imiquimod cream; format: in vivo, human
Text: Twenty-nine women with high-grade VIN (age range, 24-73 years; median age, 47 years) were recruited from the departments of gynecology of the Academic Medical Center, and Leiden and Erasmus University Medical Center, The Netherlands. On the average, these patients had been diagnosed with VIN3 5,4 years before enrollment in the study (range, 6 months-15 years). Eighteen women had undergone previous treatments for VIN3 (surgical excision, laser therapy or imiquimod treatment (#21, 24, 27)) before study entry.
(§1) Seventeen of these 29 subjects (age 29-60 years, median 43 years) were experimentally treated with a 5% imiquimod cream. The patients were asked to apply the cream to the affected areas on the vulva twice weekly overnight for a maximum period of 16 weeks. In order to analyze the effect of imiquimod treatment on the HPV16-specific immune response, we collected serial blood and serum samples before the start of imiquimod treatment (T=0), after 8 weeks of treatment (T=8), and at the end of treatment (T=16). Vulvar lesions were assessed by direct measurement and photographic records at entry, and after 8 and 16 weeks of treatment. Clinical responses were defined as a complete response (CR), a partial response type1 (PR1), as defined by a reduction in lesion diameter from 76-99%, a partial response type2 (PR2), as defined by a reduction in lesion diameter from 26-75%, or no clinical response.
Statistical analysis of the HPV16-specific proliferative responses associated with cytokine production was performed using Fisher's exact test. Fisher's Exact test (2-tailed) was used to analyze HPV-specific immunity to clinical response upon treatment with imiquimod. Statistical analyzes were performed using Graphpad Instat Software (version 3.0).

[1] = tested on: HPV16-specific IFNγ-producing T-cells; experiment: HPV16-specific T-cell reactivity by IFNγ ELISPOT before, during and after imiquimod treatment; format: in vivo, human; conditions: PBMC at week 0, 8 and 16
Text: as §1, with “Clinical responses were defined as a complete response (CR), a partial response type1 (PR1), as defined by a reduction in lesion diameter from 76-99%, a partial response type2 (PR2), as defined by a reduction in lesion diameter from 26-75%, or no clinical response.” left out
The number of IFNγ producing HPV-specific T-cells, present in the peripheral blood of the 17 patients treated with imiquimod, was quantified using ELISPOT that was performed as described previously (29; 30). […] Spots were counted with a fully automated computer-assisted-video-imaging analysis system (Bio Sys). Specific spots were calculated by subtracting the mean number of spots+2×SD of the medium control from the mean number of spots in experimental wells provided that the mean number of spots of the medium control wells were either <10 or >10 with a standard deviation <20% of the mean. […]

[2] = tested on: HPV16 VLP-specific IgG and IgA; experiment: HPV16 VLP ELISA of serum over time in imiquimod-treated patients; format: in vivo, human; conditions: serum at week 0, 8 and 16; 17 VIN3 patients
Protocol: IgG and IgA reactivity to HPV16 VLPs over time in 17 VIN3 patients treated with imiquimod. At least two serum specimens were tested in every patient. Serological responses are shown at week 0 (before imiquimod treatment), week 8 (during imiquimod treatment) and at week 16 (after imiquimod treatment). The OD values are depicted as median ±SD of positive responses. The OD values were calculated by subtraction of the background response value and the mean OD value of the young children's sera.
as §1, with “response. […]” for “response.”

VIN = conditions: topical treatment of VIN; estimate from refs 17-21; cited from earlier work
[3] = of 17 women treated, 5% cream, max 16 weeks

Compound: CC(C)Cn1cnc2c(N)nc3ccccc3c21 [imiquimod, 1-(2-methylpropyl)-1H-imidazo[4,5-c]quinolin-4-amine]
- women with overt clinical response (CR or PR1, 76-100% reduction in lesion size) (high-grade VIN; 13 of 17 women with high-grade VIN, 5% cream twice weekly, max 16 weeks): 76%
- likelihood of CR or PR1 in patients without an HPV-specific immune response (high-grade VIN; HPV16+ patients (n=15), versus those with a response, p=0.03, 2-sided Fisher's exact test): less likely to show such a clinical improvement
- patients with no reduction in size of the affected area of vulvar disease (high-grade VIN; [3]): Three
- patients with only minimal improvement upon treatment (high-grade VIN; [3]): one
- patients with complete or near complete clinical response (CR or PR1) (high-grade VIN; the 8 HPV16+ patients with an HPV-specific Th1 immune response (of n=15 HPV16+)): 8 patients
- effect on numbers of HPV16-specific T-cells [1]: In none of the patients a clear-cut increase of HPV16-specific T-cells was detected
- change of HPV16 VLP-specific IgG and IgA response [2]: did not overly change
- clinical success rates (VIN): 30-87%
